Experiments:
MCI = conditions: treatment of MCI; cited from earlier work
healthy humans = conditions: cited from earlier work
[1] = tested on: patients with aMCI or mild AD; experiment: Side effects, Udvalg for Kliniske Undersogelser Side-effects Rating Scale, in 24-week trial; assay type: in vivo, human
Method: Systemic side effects of treatments were evaluated by means of physical and neurological examinations and laboratory tests including CBC and biochemistry and reviewed by applying the Udvalg for Kliniske Undersogelser Side-effects Rating Scale at the baseline and weeks 8, 16, and 24.

[2] = tested on: patients with schizophrenia; conditions: 1000 mg/day, cited from earlier work
[3] = tested on: patients with aMCI or mild AD; experiment: CIBIC-plus in 24-week trial
NMDAR models = conditions: preclinical studies; cited from earlier work
[4] = Brain mass by magnetic resonance imaging study; assay type: in vivo
glial cells = conditions: preclinical studies; cited from earlier work
[5] = tested on: patients with aMCI or mild AD; experiment: ADAS-cog in 24-week randomized double-blind placebo-controlled trial; conditions: for ADAS-cog score, mean difference from baseline: all subjects
[6] = tested on: patients with aMCI or mild AD; experiment: Additional cognition composite (speed of processing, working memory, verbal learning and memory) in 24-week trial
MCI and mild AD = conditions: cited from earlier work
neuron death = conditions: cited from earlier work
[7] = both in vitro and in vivo studies; cited from earlier work
AD patients = conditions: some clinical studies; cited from earlier work

## Nc1nc2ncc(CNc3ccc(C(=O)N[C@@H](CCC(=O)O)C(=O)O)cc3)nc2c(=O)[nH]1 [folic acid]
MCI
  Cognitive enhancing effect: failed to show convincing evidence

## CNC1(c2ccccc2Cl)CCCCC1=O (centres unmarked) [Ketamine]
Healthy humans
  Spatial learning and verbal information ability: impaired

## O=C([O-])c1ccccc1.[Na+] [sodium benzoate]
[1]; 24-week treatment
  Tolerability: well-tolerated
[1]; all visits
  Reported side effects on Udvalg for Kliniske Undersogelser Side-effects Rating Scale: no reported side effect
[2]; chronic schizophrenia
  Side effects in earlier schizophrenia study: without obvious side effects
[2]; patients with schizophrenia
  Neurocognitive function: beneficial
[3]; CDR 1 subgroup, week 24 and endpoint (p=.040, p=.018)
  CIBIC-plus vs placebo, subgroup: greater improvement than placebo therapy
[3]; aMCI (CDR .5) subgroup
  CIBIC-plus score, subgroup: did no improve
[3]; at endpoint
  CIBIC-plus effect size vs placebo: .73
[3]; week 16 (p=.015), week 24 (p=.016), endpoint (p=.012), all subjects
  CIBIC-plus score vs placebo: greater improvement
NMDAR models
  Effect in NMDAR models such as pain relief: effective
[4]
  Brain mass: can increase the brain mass
Glial cells
  Cell death in glial cells: partially prevented cell death
[5]; CDR 1 subgroup, weeks 16 and 24 and endpoint (p=0151, p=.0387, p=.0092)
  ADAS-cog vs placebo, subgroup: greater improvement than placebo therapy
[5]; CDR .5 subgroup, throughout the study (p>.05)
  ADAS-cog vs placebo, subgroup: not superior to the placebo therapy
[5]; at the end of the study
  ADAS-cog effect size (Cohen's d) vs placebo: .86
[5]; endpoint, p=.0031 vs placebo
  ADAS-cog score, mean difference from baseline: 5.9
[5]; week 8, 250-750 mg/day, p=.3730 vs placebo
  ADAS-cog score, mean difference from baseline: 3.8
[5]; week 16, p=.0021 vs placebo
  ADAS-cog score, mean difference from baseline: 5.4
[5]; week 24, p=.0116 vs placebo
  ADAS-cog score, mean difference from baseline: 5.9
[6]; CDR 1 subgroup, p=.041
  Additional cognition composite vs placebo, subgroup: better efficacy
[6]; CDR .5 subgroup, p=.063
  Additional cognition composite vs placebo, subgroup: borderline significance
[6]; endpoint
  Additional cognition composite effect size vs placebo: .78
[6]; endpoint, all subjects, p=.007
  Additional cognition composite vs placebo: better than placebo

## CC12CC3CC(C)(C1)CC(N)(C3)C2 [Memantine]
MCI and mild AD; MCI
  Efficacy in treating MCI (British Association for Psychopharmacology consensus statement): neither AChEIs nor memantine is effective
MCI and mild AD; human, in vivo
  Efficacy at the early phase, including MCI and mild AD: limited efficacy

## N[C@H](CO)C(=O)O [D-serine]
Neuron death
  Extent of neuron death: significantly decreases

## C[C@]12N[C@H](Cc3ccccc31)c1ccccc12 [MK-801]
[7]
  Apoptosis and neurodegeneration: induce apoptosis and neurodegeneration

## omega-3 fatty acid
MCI
  Cognitive enhancing effect: failed to show convincing evidence

## vitamin E
MCI
  Cognitive enhancing effect: failed to show convincing evidence

## NC(=O)CN1CCCC1=O [piracetam, reference compound]
MCI
  Cognitive enhancing effect: failed to show convincing evidence

## N[C@@H]1CONC1=O [D-cycloserine]
AD patients
  Score on the cognitive subscale of the Alzheimer's Disease Assessment Scale (ADAS-cog): improve their score

Source: US20170216234A1, “BENZOATES FOR USE IN TREATING DEMENTIA” (priority 2014, published 2017)
